pIC50: −log10 of the molar value. Values belong to the compound of their own block, whether it stands above or below them.
How the values were obtained:
Aurora-A = biological target: T1, Aurora-A (Homo sapiens, UniProt O14965); assay: Aurora kinase activity assay (Caliper mobility shift), Aurora A; format: biochemical; settings: for IC50: recombinant Aurora kinase, FAM labeled peptide substrate
T1 sequence (O14965 1-403): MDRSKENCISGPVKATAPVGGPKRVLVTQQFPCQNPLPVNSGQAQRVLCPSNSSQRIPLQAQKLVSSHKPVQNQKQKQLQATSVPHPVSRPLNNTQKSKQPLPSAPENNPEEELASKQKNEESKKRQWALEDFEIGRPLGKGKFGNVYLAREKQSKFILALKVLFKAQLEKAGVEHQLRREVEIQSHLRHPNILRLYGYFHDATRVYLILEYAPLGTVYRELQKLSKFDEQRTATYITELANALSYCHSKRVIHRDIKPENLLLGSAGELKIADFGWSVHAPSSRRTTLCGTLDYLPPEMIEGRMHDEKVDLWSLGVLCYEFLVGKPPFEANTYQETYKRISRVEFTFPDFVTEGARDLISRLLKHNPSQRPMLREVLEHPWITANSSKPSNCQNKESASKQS
Description: (§1) The Caliper mobility shift assay was used to measure compound activity towards aurora kinase. 10 different concentrations of compounds were prepared by three-fold serial dilutions. Recombinant Aurora kinases in kinase buffer (20 mM HEPES, pH 7.5, 0.01% Triton X-100) were incubated with compounds for 10 minutes at room temperature. FAM labeled peptide substrates were subsequently added to initiate the reaction at 25° C. Conversion rates were measured by caliper after the reactions were terminated. […] Data were normalized to that of the vehicle control, and percentage of inhibition and IC50 were calculated.

Aurora-B = Aurora-B (Homo sapiens, UniProt Q96GD4); assay: Aurora kinase activity assay (Caliper mobility shift), Aurora B; format: biochemical; settings: recombinant Aurora kinase, FAM labeled peptide substrate
Description: as §1

H1975 cells = assay: H1975 proliferation assay; format: cell-based; settings: Homo sapiens, NCI-H1975; 72 hours incubation, cell survival through ATP quantification
Description: Cells were allowed to attach overnight and compounds were added to the cells for a further incubation of 72 hours. […] of CTL was added afterwards to measure cell survival through ATP quantification.

H69 xenograft = assay: In vivo anti-tumor growth in H69 mouse xenografts; parameters: species or system nude mouse; settings: for RTV (relative tumor volume, Vt/V0) / T/C / TGI (%) / Body weight (g) D1 / Tumor volume (mm^3) D1 / Body weight (g) D21 / Tumor volume (mm^3) D21: H69 xenograft, bid*21, oral; for Body weight (g) D1 / Tumor volume (mm^3) D1: D1 first day of treatment; for Body weight (g) D21 / Tumor volume (mm^3) D21: D21 last day of treatment
Description: (§2) Cells were passaged and harvested by trypsinization. 1×10^7 H69 cells were implanted in the left armpit of nude mouse. […] Tumor volume and body weight were measured every other day. Mice were sacrificed on day 21 of treatment. Relative tumor volume (RTV) and tumor growth (T/C), and tumor growth inhibition (TGI) were calculated and analyzed statistically.

H1975 xenograft = assay: In vivo anti-tumor growth in H1975 mouse xenografts; parameters: species or system nude mice
Description: as §2, with “8×10^6” for “1×10^7 H69”, “mice.” for “mouse.”, “monitored” for “measured”, “analyzed.” for “analyzed statistically.”

[1] = Dosage 60, qd*21, oral gavage, D1 first day of treatment
[2] = Dosage 60, qd*21, oral gavage, D21 last day of treatment

Chain of Aurora-B (Q96GD4 whole entry): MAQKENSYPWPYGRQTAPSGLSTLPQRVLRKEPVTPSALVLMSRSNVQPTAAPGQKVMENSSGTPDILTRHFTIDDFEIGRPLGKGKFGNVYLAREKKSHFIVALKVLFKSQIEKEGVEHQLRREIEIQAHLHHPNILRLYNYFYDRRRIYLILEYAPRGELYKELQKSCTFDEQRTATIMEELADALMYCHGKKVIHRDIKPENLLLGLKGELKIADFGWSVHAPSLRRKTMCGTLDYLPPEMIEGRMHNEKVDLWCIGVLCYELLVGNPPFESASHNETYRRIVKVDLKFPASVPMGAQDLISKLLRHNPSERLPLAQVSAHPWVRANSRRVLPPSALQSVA

Compound: CC1CC(Cc2nc(Nc3nccs3)ccc2F)(C(=O)O)CCN1Cc1cccc(Cl)c1F (racemic) [Compound 1, 1-(3-chloro-2-fluorobenzyl)-4-((3-fluoro-6-(thiazol-2-ylamino)pyridin-2-yl)methyl)-2-methylpiperidine-4-carboxylic acid]
- IC50 (Aurora-A): 0.64 nM
- IC50 (Aurora-B): 20 nM
- pIC50 (H1975 cells): 7.66

Compound: C[C@@H]1C[C@](Cc2nc(Nc3nccs3)ccc2F)(C(=O)O)CCN1Cc1cccc(Cl)c1F [Compound 1-1, (2R,4R)-1-(3-chloro-2-fluorobenzyl)-4-((3-fluoro-6-(thiazol-2-ylamino)pyridin-2-yl)methyl)-2-methylpiperidine-4-carboxylic acid]
- IC50 (Aurora-A): 0.4 nM
- potency in words (comment on Table 2) (Aurora-A; towards Aurora-A, Aurora-B and H1975): more potent than its racemic mixture
- IC50 (Aurora-B): 16 nM
- pIC50 (H1975 cells): 7.92
- H69 tumor growth in words (comment on Table 4) (H69 xenograft; 2.5, 5 and 10 mg/kg twice daily, compared to LY-3295668): blocks H69 tumor growth in a dose dependent manner with markedly improved efficacy compared to LY-3295668
- RTV (relative tumor volume, Vt/V0) (H69 xenograft; 2.5 mg/kg): 0.65
- T/C (H69 xenograft; 2.5 mg/kg): 20%
- TGI (%) (H69 xenograft; 2.5 mg/kg): 111.16%
- Body weight (g) D1 (H69 xenograft; 2.5 mg/kg): 15.99 g
- Tumor volume (mm^3) D1 (H69 xenograft; 2.5 mg/kg): 287.46 mm^3
- Body weight (g) D21 (H69 xenograft; 2.5 mg/kg): 16.73 g
- Tumor volume (mm^3) D21 (H69 xenograft; 2.5 mg/kg): 180.58 mm^3
- RTV (relative tumor volume, Vt/V0) (H69 xenograft; 5 mg/kg): 0.33
- T/C (H69 xenograft; 5 mg/kg): 10%
- TGI (%) (H69 xenograft; 5 mg/kg): 120.31%
- Body weight (g) D1 (H69 xenograft; 5 mg/kg): 15.91 g
- Tumor volume (mm^3) D1 (H69 xenograft; 5 mg/kg): 284.84 mm^3
- Body weight (g) D21 (H69 xenograft; 5 mg/kg): 16.01 g
- Tumor volume (mm^3) D21 (H69 xenograft; 5 mg/kg): 90.43 mm^3
- RTV (relative tumor volume, Vt/V0) (H69 xenograft; 10 mg/kg): 0.37
- T/C (H69 xenograft; 10 mg/kg): 11%
- TGI (%) (H69 xenograft; 10 mg/kg): 120.34%
- Body weight (g) D1 (H69 xenograft; 10 mg/kg): 16.16 g
- Tumor volume (mm^3) D1 (H69 xenograft; 10 mg/kg): 287.92 mm^3
- Body weight (g) D21 (H69 xenograft; 10 mg/kg): 16.19 g
- Tumor volume (mm^3) D21 (H69 xenograft; 10 mg/kg): 93.16 mm^3

Compound: CC1CC(Cc2nc(Nc3nccs3)ccc2F)(C(=O)O)CCN1Cc1ccnc(Cl)c1F (stereo not shown) [Compound 3, 1-((2-chloro-3-fluoropyridin-4-yl)methyl)-4-((3-fluoro-6-(thiazol-2-ylamino)pyridin-2-yl)methyl)-2-methylpiperidine-4-carboxylic acid]
- IC50 (Aurora-A): 0.73 nM
- IC50 (Aurora-B): 321 nM
- pIC50 (H1975 cells): 6.71

Compound: CC1CC(Cc2nc(Nc3nccs3)ccc2F)(C(=O)O)CCN1Cc1cccc2c1OC(F)(F)O2 (stereo not shown) [Compound 7, 1-((2,2-difluorobenzo[d][1,3]dioxol-4-yl)methyl)-4-((3-fluoro-6-(thiazol-2-ylamino)pyridin-2-yl)methyl)-2-methylpiperidine-4-carboxylic acid]
- IC50 (Aurora-A): 1.1 nM
- IC50 (Aurora-B): 822 nM
- pIC50 (H1975 cells): 7.00

Further lines, with some results ahead:

- IC50 (Aurora-A): 0.98 nM
- IC50 (Aurora-B): 126 nM
Compound: CC1CC(Cc2nc(Nc3nccs3)ccc2F)(C(=O)O)CCN1C(C)c1cccc(Cl)c1F (stereo not shown) [Compound 9, 1-(1-(3-chloro-2-fluorophenyl)ethyl)-4-((3-fluoro-6-(thiazol-2-ylamino)pyridin-2-yl)methyl)-2-methylpiperidine-4-carboxylic acid]
- pIC50 (H1975 cells): 7.09

- IC50 (Aurora-A): 0.74 nM
- IC50 (Aurora-B): 15 nM
Compound: [2H]C([2H])(c1cccc(Cl)c1F)N1CCC(Cc2nc(Nc3nccs3)ccc2F)(C(=O)O)CC1C (stereo not shown) [Compound 13, 1-((3-chloro-2-fluorophenyl)methyl-d2)-4-((3-fluoro-6-(thiazol-2-ylamino)pyridin-2-yl)methyl)-2-methylpiperidine-4-carboxylic acid]
- pIC50 (H1975 cells): 7.60
- RTV (relative tumor volume, Vt/V0) (H1975 xenograft; Dosage 60, qd*21, oral gavage): 4.72
- TGI (%) (H1975 xenograft; Dosage 60, qd*21, oral gavage): 81.07%
- Body weight (g) D1 (H1975 xenograft; [1]): 17.82 g
- Tumor volume (mm^3) D1 (H1975 xenograft; [1]): 82.50 mm^3
- Body weight (g) D21 (H1975 xenograft; [2]): 19.00 g
- Tumor volume (mm^3) D21 (H1975 xenograft; [2]): 373.74 mm^3
- T/C (H1975 xenograft; Dosage 60, qd*21, oral gavage, TRTV/CRTV × 100): 24.11%
- activity in vivo in words (comment on Table 3) (H1975 xenograft; compared with LY-3295668): shows greater activity in vivo

- IC50 (Aurora-A): 1.42 nM
- IC50 (Aurora-B): 435 nM
Compound: CC1(C)CC(Cc2nc(Nc3nccs3)ccc2F)(C(=O)O)CCN1Cc1cccc(Cl)c1F (stereo not shown) [Compound 20, 1-(3-chloro-2-fluorobenzyl)-4-((3-fluoro-6-(thiazol-2-ylamino)pyridin-2-yl)methyl)-2,2-dimethylpiperidine-4-carboxylic acid]
- pIC50 (H1975 cells): 6.81

- IC50 (Aurora-A): 1.21 nM
- IC50 (Aurora-B): 1140 nM
Compound: Cc1cc(Nc2ccc(F)c(CC3(C(=O)O)CCN(C(=O)c4cccc(Cl)c4F)C(C)C3)n2)n[nH]1 (stereo not shown) [Compound 22, 1-(3-chloro-2-fluorobenzoyl)-4-((3-fluoro-6-((5-methyl-1H-pyrazol-3-yl)amino)pyridin-2-yl)methyl)-2-methylpiperidine-4-carboxylic acid]
- pIC50 (H1975 cells): 6.81

Reference: US12351582B2, “Aurora kinase inhibitors and uses thereof” (WIGEN BIOMEDICINE TECHNOLOGY (SHANGHAI) CO., LTD., priority 2019, dated 2025)
